The values that follow come from patent US6566587B1, “Mutated 5-enolpyruvylshikimate-3-phosphate synthase, gene coding for said protein and transformed plants containing said gene” (priority 1995, dated 2003).

Assay [1] concerns maize EPSPS mutant Ala101/Ile102 (Gly 101→Ala and Thr 102→Ile). Briefly: In vitro EPSP synthase activity, inhibition by glyphosate (phosphate liberated). Format: biochemical. How it is done:
(§1) 2.a: Extraction of EPSP synthase The different EPSP synthase genes are introduced in the form of an NcoI-HindIII cassette into the plasmid vector pTro99a (Pharmacia, ref: 27-5007-01) cut with NcoI and HindIII. Recombinant E. coli DH10B bacteria overexpressing the different EPSP synthases are sonicated in 40 ml of buffer per 10 g of pelleted cells, and washed with this same buffer (200 mM Tris-HCl pH 7.8, 50 mM mercaptoethanol, 5 mM EDTA and 1 mM PMSF), to which 1 g of polyvinylpyrrolidone is added. The suspension is stirred for 15 minutes at 4° C. and then centrifuged for 20 minutes at 27,000 g and 4° C.
(§2) Ammonium sulphate is added to the supernatant to bring the solution to 40% saturation with respect to ammonium sulphate. The mixture is centrifuged for 20 minutes at 27,000 g and 4° C. Ammonium sulphate is added to the new supernatant to bring the solution to 70% saturation with respect to ammonium sulphate. The mixture is centrifuged for 30 minutes at 27,000 g and 4° C. The EPSP synthase present in this protein pellet is taken up in 1 ml of buffer (20 mM Tris-HCl pH 7.8 and 50 mM mercaptoethanol). This solution is dialysed overnight against two liters of this same buffer at 4° C.
(§3) The activity of each enzyme, as well as its glyphosate resistance, is measured in vitro over 10 minutes at 37° C. in the following reaction mixture: 100 mM maleic acid pH 5.6, 1 mM phosphoenolpyruvate, 3 mM shikimate 3-phosphate (prepared according to Knowles P. R. and Sprinson D. B. 1970. Methods in Enzymol 17A, 351-352 from Aerobacter aerogenes strain ATCC 25597) and 10 mM potassium fluoride. The enzyme extract is added at the last moment after the addition of glyphosate, the final concentration of which varies from 0 to 20 mM.
(§4) The activity is measured by assaying the phosphate liberated according to the technique of Tausky H. A. and Shorr E. 1953. J. Biol. Chem. 202, 675-685.

The subject of another assay is maize EPSPS mutant Ala. The assay is described as above. Format: biochemical. How it is done: as §1, §2, §3, §4
Assay [2] deals with T1, maize EPSPS mutant Ile102 (Thr 102→Ile) (Zea mays, UniProt O24566, T102I).
T1 sequence (O24566 1-444 T102I): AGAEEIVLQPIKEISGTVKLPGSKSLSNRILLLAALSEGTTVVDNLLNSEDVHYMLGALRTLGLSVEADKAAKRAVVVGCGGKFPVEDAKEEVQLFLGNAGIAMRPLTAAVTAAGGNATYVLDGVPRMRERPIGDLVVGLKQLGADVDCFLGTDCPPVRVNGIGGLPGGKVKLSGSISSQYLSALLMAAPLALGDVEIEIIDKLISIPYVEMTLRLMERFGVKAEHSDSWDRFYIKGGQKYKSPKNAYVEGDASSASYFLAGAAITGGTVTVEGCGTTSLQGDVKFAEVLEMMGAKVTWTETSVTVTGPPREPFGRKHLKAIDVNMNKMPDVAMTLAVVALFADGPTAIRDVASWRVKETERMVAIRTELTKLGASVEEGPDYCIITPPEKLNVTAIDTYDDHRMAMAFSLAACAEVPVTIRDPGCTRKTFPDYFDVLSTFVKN
Described as above. Particulars: 10 minutes at 37° C., pH 5.6, 1 mM phosphoenolpyruvate. Format: biochemical. How it is done: as §1, §2, §3, §4

Assay [3] deals with maize EPSPS mutant Ile102/Ser106 (Thr 102→Ile and Pro 106→Ser). The assay is described as above. Format: biochemical. How it is done:
as §1, §2, §3, §4

Assay [4] relates to maize EPSPS mutant Ser106 (Pro 106→Ser). The description is as above. Particulars: glyphosate 0.12 mM; 10 minutes at 37° C., pH 5.6, 1 mM phosphoenolpyruvate. The class given is biochemical. How it is done:
as §1, §2, §3, §4

The test system of assay [5] is wild-type (WT) maize EPSPS. The assay is described as above. The class given is biochemical. Particulars: glyphosate 0.12 mM; 10 minutes at 37° C., pH 5.6, 1 mM phosphoenolpyruvate. How it is done:
as §1, §2, §3, §4

The test system of assay [6] is BMS (Black Mexican Sweet) maize cells not bombarded. Briefly: Growth of maize cells on medium containing herbicide. The class given is cell-based. Conditions: 2 mM in medium. How it is done: (§5) BMS (Black Mexican Sweet) maize cells in an exponential growth phase are bombarded with the construction pRPA-RD-130 according to the principle and the protocol described by Klein et al. 1987 (Klein T. M., Wolf E. D., Wu R. and Sandford J. C. (1987): High velocity microprojectiles for delivering nucleic acids into living cells, NATURE Vol. 327 pp. 70-73).
(§6) Two days after bomardment, the cells are transferred to the same medium containing 2 mM N-(phosphonomethyl)glycine.

Assay [7] deals with BMS (Black Mexican Sweet) maize cells bombarded with the construction pRPA-RD-130. Description: Selection of transformed maize cells on medium containing herbicide. The class given is cell-based. Particulars: 2 mM in medium, 8 weeks of selection. How it is done: as §5, §6
[8] abbreviates: glyphosate concentrations up to 10 mM.

Take `O=C(O)CNCP(=O)(O)O` [glyphosate, N-(phosphonomethyl)glycine]: the “inhibition of enzyme activity” value in assay [1] (glyphosate 0.12 mM) is given as “little or no inhibition”; in assay [1] (glyphosate 1.2 mM), “still not being inhibited”; in assay [1] (setting [8]), “not inhibited”; in the assay on maize EPSPS mutant Ala (glyphosate 1.2 mM) it was “still not being inhibited”; with maize EPSPS mutant Ala (setting [8]), “not inhibited”; in assay [2] (glyphosate 0.12 mM), “little or no inhibition”. The “inhibition of enzyme activity” value in assay [3] (glyphosate 0.12 mM) is reported as “little or no inhibition”; in assay [3] (glyphosate 1.2 mM) it was “still not being inhibited”; in assay [3] (glyphosate 20 mM), “not reduced”; in assay [4] it was 50%; in assay [5] it was 85%. For the same compound, the IC50 in assay [2] (read-out: glyphosate concentration producing a 50% inhibition) was found to be 1.2 mM. Besides, the “cell growth on medium containing herbicide” value in assay [6] is “blocked by the herbicide and do not develop”. Besides, the “callus development on selection medium” value in assay [7] was “calluses which develop”.
